Assay results published in ChEMBL document CHEMBL1201862, “PubChem BioAssay data set” (2004).
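Five concentrations, 48 hours, 96-well plates. GI50 = concentration required for 50% inhibition of growth.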 The source made the active and inactive calls. Cut-off read from the data, not from the text of the source: active = GI50 up to about 1.1 µM and inactive = higher.

Experiments:
Assay in all cases: NCI tumour cell line growth inhibition, 48 h
[1] = system: 786-0
[2] = system: A498
[3] = system: A549
[4] = system: ACHN
[5] = system: BT-549
[6] = system: CAKI-1
[7] = system: CCRF-CEM
[8] = system: COLO 205
[9] = system: DU-145
[10] = system: EKVX
[11] = system: HCC 2998
[12] = system: HCT-116
[13] = system: HCT-15
[14] = system: HL-60
[15] = system: HOP-62
[16] = system: HOP-92
[17] = system: HT-29
[18] = system: IGROV-1
[19] = system: K562
[20] = system: KM12
[21] = system: LOX IMVI
[22] = system: M14
[23] = system: MCF7
[24] = system: MDA-MB-231
[25] = system: MDA-MB-435
[26] = system: MDA-N
[27] = system: Malme-3M
[28] = system: NCI-H23
[29] = system: NCI-H460
[30] = system: NCI-H522
[31] = system: NCI/ADR-RES
[32] = system: OVCAR-3
[33] = system: OVCAR-4
[34] = system: OVCAR-5
[35] = system: OVCAR-8
[36] = system: PC-3
[37] = system: RXF 393
[38] = system: SF-268
[39] = system: SF-295
[40] = system: SF-539
[41] = system: SK-MEL-28
[42] = system: SK-MEL-2
[43] = system: SK-MEL-5
[44] = system: SK-OV-3
[45] = system: SN12C
[46] = system: SNB-19
[47] = system: SNB-75
[48] = system: SW-620
[49] = system: T47D
[50] = system: TK-10
[51] = system: U-251
[52] = system: UACC-257
[53] = system: UACC-62
[54] = system: UO-31
[55] = system: MOLT-4
[56] = system: NCI-H226
[57] = system: RPMI-8226
[58] = system: SR

COc1ccc(-c2nc(SCC(=O)N/N=C/c3ccc(N(C)C)cc3)[nH]c2-c2ccc(OC)cc2)cc1
GI50 [1]: 57.7 µM (inactive)
GI50 [2]: 71.9 µM (inactive)
GI50 [3]: 17.6 µM (inactive)
GI50 [4]: 51.9 µM (inactive)
GI50 [5]: > 100 µM (inactive)
GI50 [6]: > 100 µM (inactive)
GI50 [7]: 8.57 µM (inactive)
GI50 [8]: 10.2 µM (inactive)
GI50 [9]: 78.5 µM (inactive)
GI50 [10]: 90.4 µM (inactive)
GI50 [11]: 75.9 µM (inactive)
GI50 [12]: 37.9 µM (inactive)
GI50 [13]: 46.3 µM
GI50 [14]: 11.5 µM (inactive)
GI50 [15]: > 100 µM (inactive)
GI50 [16]: > 100 µM (inactive)
GI50 [17]: 34.6 µM (inactive)
GI50 [18]: > 100 µM (inactive)
GI50 [19]: 18.5 µM (inactive)
GI50 [20]: 32.6 µM (inactive)
GI50 [21]: 92.9 µM (inactive)
GI50 [22]: 35.2 µM (inactive)
GI50 [23]: 13.5 µM (inactive)
GI50 [24]: > 100 µM (inactive)
GI50 [25]: 74.8 µM (inactive)
GI50 [26]: 76.9 µM (inactive)
GI50 [27]: > 100 µM (inactive)
GI50 [28]: > 100 µM (inactive)
GI50 [29]: 32.7 µM (inactive)
GI50 [30]: 31.3 µM (inactive)
GI50 [31]: > 100 µM (inactive)
GI50 [32]: 20.1 µM (inactive)
GI50 [33]: > 100 µM (inactive)
GI50 [34]: 99.5 µM (inactive)
GI50 [35]: 84.7 µM (inactive)
GI50 [36]: 44.8 µM (inactive)
GI50 [37]: 33.4 µM (inactive)
GI50 [38]: > 100 µM (inactive)
GI50 [39]: 37 µM (inactive)
GI50 [40]: > 100 µM (inactive)
GI50 [41]: > 100 µM (inactive)
GI50 [42]: 86.1 µM (inactive)
GI50 [43]: 26.8 µM (inactive)
GI50 [44]: > 100 µM (inactive)
GI50 [45]: 82 µM (inactive)
GI50 [46]: > 100 µM (inactive)
GI50 [47]: 62.8 µM (inactive)
GI50 [48]: 48 µM (inactive)
GI50 [49]: 10.6 µM (inactive)
GI50 [50]: > 100 µM (inactive)
GI50 [51]: 36.9 µM (inactive)
GI50 [52]: > 100 µM (inactive)
GI50 [53]: 46.7 µM (inactive)
GI50 [54]: 82.8 µM (inactive)

N#CC(C/C=C/c1ccccc1)NNC(=O)c1c(Cl)c(Cl)c(Cl)c(Cl)c1-c1nc2cc(C(=O)c3ccccc3)ccc2[nH]1 (configuration not stated)
GI50 [1]: 16.4 µM (inactive)
GI50 [2]: 9.23 µM (inactive)
GI50 [3]: 18.1 µM (inactive)
GI50 [4]: 25.9 µM (inactive)
GI50 [5]: 20.7 µM (inactive)
GI50 [6]: 31.4 µM (inactive)
GI50 [7]: 5.79 µM (inactive)
GI50 [8]: 15 µM (inactive)
GI50 [9]: 18.5 µM (inactive)
GI50 [10]: 15.1 µM (inactive)
GI50 [12]: 20 µM (inactive)
GI50 [13]: 11.6 µM
GI50 [14]: 7.57 µM (inactive)
GI50 [15]: 6.14 µM (inactive)
GI50 [16]: 16.2 µM (inactive)
GI50 [17]: 16.1 µM (inactive)
GI50 [18]: 18.2 µM (inactive)
GI50 [19]: 6.34 µM (inactive)
GI50 [20]: 23.4 µM (inactive)
GI50 [21]: 13.5 µM (inactive)
GI50 [22]: 14.9 µM (inactive)
GI50 [23]: 7.94 µM (inactive)
GI50 [24]: 16.1 µM (inactive)
GI50 [25]: 4.11 µM (inactive)
GI50 [26]: 3.24 µM (inactive)
GI50 [55]: 13.4 µM (inactive)
GI50 [56]: 17.7 µM (inactive)
GI50 [28]: 17.9 µM (inactive)
GI50 [31]: 12.9 µM (inactive)
GI50 [32]: 7.53 µM (inactive)
GI50 [33]: 14 µM (inactive)
GI50 [34]: 28.9 µM (inactive)
GI50 [35]: 16.7 µM (inactive)
GI50 [36]: 10.9 µM (inactive)
GI50 [57]: 16.3 µM (inactive)
GI50 [37]: 9.53 µM (inactive)
GI50 [39]: 3.92 µM (inactive)
GI50 [40]: 9.86 µM (inactive)
GI50 [41]: 16.3 µM (inactive)
GI50 [42]: 17.5 µM (inactive)
GI50 [43]: 10.2 µM (inactive)
GI50 [44]: 16.9 µM (inactive)
GI50 [45]: 14.8 µM (inactive)
GI50 [46]: 14.8 µM (inactive)
GI50 [47]: 17.4 µM (inactive)
GI50 [58]: 6.58 µM (inactive)
GI50 [48]: 22.8 µM (inactive)
GI50 [49]: 12 µM (inactive)
GI50 [50]: 22.8 µM (inactive)
GI50 [51]: 12.5 µM (inactive)
GI50 [52]: 25.5 µM (inactive)
GI50 [54]: 21.5 µM (inactive)

CC1C(=O)N=C2C(=CN(Cc3ccccc3)c3ccccc32)C(=O)N1C (configuration not stated)
GI50 [1]: > 100 µM (inactive)
GI50 [2]: > 100 µM (inactive)
GI50 [3]: > 100 µM (inactive)
GI50 [4]: > 100 µM (inactive)
GI50 [5]: > 100 µM (inactive)
GI50 [6]: > 100 µM (inactive)
GI50 [7]: > 100 µM (inactive)
GI50 [8]: > 100 µM (inactive)
GI50 [9]: > 100 µM (inactive)
GI50 [11]: > 100 µM (inactive)
GI50 [12]: > 100 µM (inactive)
GI50 [13]: > 100 µM
GI50 [16]: > 100 µM (inactive)
GI50 [17]: > 100 µM (inactive)
GI50 [18]: > 100 µM (inactive)
GI50 [19]: 1.44 µM (inactive)
GI50 [20]: > 100 µM (inactive)
GI50 [22]: > 100 µM (inactive)
GI50 [23]: > 100 µM (inactive)
GI50 [24]: > 100 µM (inactive)
GI50 [25]: > 100 µM (inactive)
GI50 [26]: > 100 µM (inactive)
GI50 [27]: > 100 µM (inactive)
GI50 [56]: > 100 µM (inactive)
GI50 [28]: > 100 µM (inactive)
GI50 [29]: > 100 µM (inactive)
GI50 [30]: 29.1 µM (inactive)
GI50 [31]: > 100 µM (inactive)
GI50 [32]: > 100 µM (inactive)
GI50 [33]: > 100 µM (inactive)
GI50 [34]: > 100 µM (inactive)
GI50 [35]: > 100 µM (inactive)
GI50 [36]: > 100 µM (inactive)
GI50 [57]: > 100 µM (inactive)
GI50 [37]: > 100 µM (inactive)
GI50 [38]: > 100 µM (inactive)
GI50 [40]: > 100 µM (inactive)
GI50 [41]: > 100 µM (inactive)
GI50 [42]: > 100 µM (inactive)
GI50 [43]: > 100 µM (inactive)
GI50 [45]: > 100 µM (inactive)
GI50 [46]: > 100 µM (inactive)
GI50 [47]: > 100 µM (inactive)
GI50 [58]: 4.26 µM (inactive)
GI50 [48]: > 100 µM (inactive)
GI50 [49]: > 100 µM (inactive)
GI50 [50]: > 100 µM (inactive)
GI50 [51]: > 100 µM (inactive)
GI50 [52]: > 100 µM (inactive)
GI50 [53]: > 100 µM (inactive)
GI50 [54]: > 100 µM (inactive)
